“And” between values parts separate entries of the source, which are not always exact repeats. Equal values may be shown once. “Also recorded” adds a separate entry of the source. Where a name gives a salt, the structure may show the parent alone.

The test system of series [1] is debrisoquin hydroxylase (sparteine monooxygenase). The conditions noted are these: Inaba et al 1985, cited from earlier work.
Series [2] deals with debrisoquin hydroxylase. As to the kind of experiment: Urinary DM/DR ratio with other antioxidants in specific patients (Example 5).
Text: The second method involves sampling body fluids to compare the concentrations of DM and its primary metabolite, dextrorphan (DR). Although blood concentrations can be directly evaluated by drawing blood samples if desired, an easier and painless approach is to analyze urine samples. Blood or urine samples can be processed using methods such as high performance liquid chromatography (HPLC), as described in Example 5. […] The height of each peak, or the area under each peak, will indicate the quantity of each compound in the blood or urine sample. The heights of the DM and DR peaks are then divided, to determine the DM/DR ratio. The ratio which occurs after administration of a candidate antioxidant drug is compared to the DM/DR ratio in the same patient under control conditions (i.e., before administration of any antioxidant).
Preliminary Analysis of Other Antioxidants
To further evaluate that possibility, the Applicant arranged for chemical analyses of urine samples, using HPLC, in the labs of an independent investigator.
Series [3] concerns sigma receptors. The conditions noted are these: reportedly; cited from earlier work.
Series [4] relates to N-methyl-D-aspartate (NMDA) receptors. The note with it: reportedly; cited from earlier work.
For series [5], the system named is neuronal calcium channels. The note with it: reportedly; Carpenter et al 1988; cited from earlier work.
In series [6] the test system is ALS patients. The conditions noted are these: DM up to about 300 mg/day or higher; quinidine in prolonged QT interval; cited from earlier work.
The nature of series [7]: Plasma concentration of DM 10-12 hours after oral dosing, without and with quinidine (Examples 2 and 3). The note with it: effect of quinidine on plasma DM, words. The series is classed as in vivo, human. As to the method:
Plasma Concentrations of DM
Five patients were orally administered 120 mg of DM, with no co-administration of quinidine. Between 10 and 12 hours later, blood was sampled, blood plasma was isolated by centrifugation, and the plasma was analyzed to determine the DM concentration using the thebaine/HPLC method.
During a different week, the same patients were orally administered 60 mg of DM (half the control dosage) and 150 mg of quinidine. Between 10 and 12 hours later, blood was sampled and the plasma was analyzed for DM using thebaine/HPLC.
Additional studies were undertaken using a range of dosages of DM to establish a dose-response curve that correlates the quantity of DM orally administered to a patient with blood plasma concentrations 10 to 12 hours later (determined as described in Example 2). All patients received 150 mg of quinidine daily. The results of those studies are shown in graphical form in FIG. 2, with mean values shown as open squares and standard deviation ranges shown by vertical bars. The ascending line through the median values is a linear approximation; a curve based on more extensive data would probably show a horizontal asymptote.

Series [8] has as its system liver cell preparations. The note with it: Broly et al 1989; cited from earlier work.
The test system of series [9] is debrisoquin hydroxylase. As to the kind of experiment: Urinary DM/DR ratio after oral dextromethorphan without and with quinidine (Example 1). The series is classed as in vivo, human. The conditions noted are these: 150 mg quinidine + 60 mg DM. As to the method:
Since the research that led to this invention was done by a neurologist who was initially interested in finding out whether DM might be able to retard the progress of ALS, the initial studies were done on patients suffering from ALS, most of whom are adults more than 50 years old.
Six patients suffering from ALS were administered orally a single 60 mg dextromethorphan dose. Several hours later, a urine sample was collected, and the urine concentrations of dextromethorphan (DM) and dextrorphan (DR) were measured as described below to determine a DM/DR ratio. […] In a different week, 60 mg of DM and 150 mg of quinidine were orally administered to the same patients, and urinary DM and DR levels and DM/DR ratios were determined again.
DM and DR urinary levels without quinidine were determined by adding […] of thebaine as an internal standard to 1 mL of urine. To this was added 2000 units of beta-glucuronidase in 1 mL of acetate buffer (0.1M, pH 5.0). The mixture was incubated for 18 hours at 37° C. and then extracted by adding 1 mL of phosphate buffer (pH 12, 0.10M) and 7 mL of n-butanol/hexane (10:90 v/v). After mixing and centrifugation, the organic layer was transferred to a clean tube and acidified with 400 uL of 0.01 N HCL. 20 microliters (uL) of aqueous phase was injected into a high performance liquid chromatography (HPLC) system. The HPLC used a phenyl column equilibrated with a mobile phase of acetonitrile:water (51:49, v/v) containing 10 mM KHPO4, 10 mM hexane sulfonic acid, pH 4.0 (flow rate 1.2 mL/min). Detection of thebaine, dextromethorphan and dextrorphan was achieved by fluorescence (Kratos FS-980 Fluorometer) with an excitation wavelength of 228 nm and no emission cutoff filter.
A gas chromatograph/mass spectroscopy (gc/ms) assay was employed for determining dextromethorphan and dextrorphan levels in the presence of quinidine. Briefly, 0.5 ml urine samples were spiked with 500 nanograms (ng) of dimethacrine. The urine pH was adjusted to 5.0 with 0.1M acetate buffer (usually about 1.0 ml), and beta-glucuronidase was added (2000 units/ml urine). […]

For `CNCCC=C1c2ccccc2CCc2ccccc21` [nortriptyline], in [1], the “In vitro activity in inhibiting debrisoquin hydroxylase” value is “significant in vitro activity”.
As for `CC(C)(C)NC[C@H](O)COc1nsnc1N1CCOCC1` [timolol], the “In vitro activity in inhibiting debrisoquin hydroxylase” value in series [1] is on record as “significant in vitro activity”.
Turning to `COc1ccc(Cc2nccc3cc(OC)c(OC)cc23)cc1OC` [papaverine], in [1], the “In vitro activity in inhibiting debrisoquin hydroxylase” value is recorded as “significant in vitro activity”.
Regarding `O=C(CCCN1CCC(O)(c2ccc(Cl)cc2)CC1)c1ccc(F)cc1` [haloperidol], the “In vitro activity in inhibiting debrisoquin hydroxylase” value in series [1] is “significant in vitro activity; also recorded: relatively potent”.
Take `C=C[C@H]1C[N@@]2CC[C@H]1C[C@H]2[C@H](O)c1ccnc2ccc(OC)cc12` [quinine sulfate]: in [2] (urine, HPLC, antioxidant in brackets, preliminary, one value per patient), the “DM/DR ratio (antioxidant)” value was 0.09 and 0.05.
On to `CC(C)NCC(O)COc1cccc2ccccc12` (stereo not drawn) [propranolol], for which the “In vitro activity in inhibiting debrisoquin hydroxylase” value in series [1] was “significant in vitro activity”.
As for `CN1CC[C@@]23CCCC[C@@H]2[C@@H]1Cc1ccc(O)cc13` [dextrorphan], the “Activity at sigma receptors” value in series [3] is on record as “sigma agonists”. For the same compound, the “Activity at NMDA receptors” value in [4] is given as “NMDA antagonists”. The “Activity at neuronal calcium channels” value in series [5] is “calcium channel antagonists”.
On to `CN1[C@@H](CC(=O)c2ccccc2)CCC[C@H]1C[C@H](O)c1ccccc1` [lobeline], for which, in series [1], the “In vitro activity in inhibiting debrisoquin hydroxylase” value is “significant in vitro activity; also recorded: relatively potent”.
As to `CNCCC(Oc1ccc(C(F)(F)F)cc1)c1ccccc1` (stereo not drawn) [fluoxetine], in series [2] (ALS patient taking fluoxetine, research by the Applicant), the “Effect on DM concentrations in the blood / debrisoquin hydroxylase oxidative activity” value was “can suppress the oxidative activity of the debrisoquin hydroxylase enzyme, albeit at a potency substantially below that of quinidine; also recorded: effective in increasing DM concentrations in the blood”.
`COCCc1ccc(OCC(O)CNC(C)C)cc1` (racemic) [metaprolol]: the “In vitro activity in inhibiting debrisoquin hydroxylase” value in [1] is recorded as “significant in vitro activity”.
Regarding `C=C[C@H]1C[N@@]2CC[C@H]1C[C@H]2[C@H](O)c1ccnc2ccc(OC)cc12` [quinine], in series [1], the “In vitro activity in inhibiting debrisoquin hydroxylase” value was “significant in vitro activity”.
`Cc1cccc(C)c1OCC(C)N` (stereo not drawn) [mexiletine]: in [1], the “In vitro activity in inhibiting debrisoquin hydroxylase” value is on record as “significant in vitro activity”.
`NC(=O)C1(N2CCCCC2)CCN(CCCC(=O)c2ccc(F)cc2)CC1` [pipamperone]: the “In vitro activity in inhibiting debrisoquin hydroxylase” value in series [1] is listed as “significant in vitro activity; also recorded: relatively potent”.
Consider `CC(CCc1ccccc1)NCC(O)c1ccc(O)c(C(N)=O)c1` (stereo not drawn) [labetalol], for which the “In vitro activity in inhibiting debrisoquin hydroxylase” value in series [1] is listed as “significant in vitro activity”.
For the compound `O=c1[nH]c2ccccc2n1CCCN1CCC(n2c(=O)[nH]c3cc(Cl)ccc32)CC1` [domperidone], the “In vitro activity in inhibiting debrisoquin hydroxylase” value in [1] is “significant in vitro activity”.
On to `C=C[C@H]1C[N@@]2CC[C@H]1C[C@@H]2[C@@H](O)c1ccnc2ccc(OC)cc12` [quinidine], for which the “Adverse effects (general knowledge)” value in [6] is “cardiac arrest (which can be fatal)”. Besides, in [7], the “DM plasma level, with or without quinidine” value is “major increase in the concentration of DM in the blood plasma; also recorded: pronounced effect in increasing and stabilizing the quantity of DM circulating in the blood; also recorded: highly effective in increasing DM concentrations”. In series [8], the “DM oxidation / metabolism in liver cell preparations” value is on record as “suppresses DM oxidation in liver cell preparations”. Moreover, the “Increase of DM/DR ratio, all test subjects” value in [9] (all test subjects) was “at least 2 orders of magnitude”. The “Increase of DM/DR ratio, usually” value in series [9] (usual case) is “more than 3 orders of magnitude”. For the same compound, in [1], the “In vitro activity in inhibiting debrisoquin hydroxylase” value was “most powerful of these inhibitors; also recorded: most potent inhibitor of the sparteine monooxygenase enzyme; also recorded: potent inhibitor of the debrisoquin hydroxylase enzyme”. Besides, the Ki in [1] (in vitro, read-out: Ki (Michaelis-Menton inhibition)) is 60 nM.
Take `C=CCOc1ccccc1OCC(O)CNC(C)C` (stereo not drawn) [oxprenolol]: the “In vitro activity in inhibiting debrisoquin hydroxylase” value in series [1] is reported as “significant in vitro activity”.
For `COC(=O)[C@@H]1[C@H]2C[C@H]3c4[nH]c5ccccc5c4CCN3C[C@@H]2CC[C@@H]1O` [yohimbine], the “In vitro activity in inhibiting debrisoquin hydroxylase” value in series [1] is “significant in vitro activity; also recorded: relatively potent”.
As to `CC[C@H]1[C@@H]2C[C@H]3[C@@H]4N(C)c5ccccc5[C@]45C[C@@H]([C@H]2[C@H]5O)N3[C@@H]1O` [ajmaline], in series [1], the “In vitro activity in inhibiting debrisoquin hydroxylase” value is listed as “significant in vitro activity; also recorded: relatively potent”.

Values taken from patent publication US5366980A, “Use of dextromethorphan and an oxidase inhibitor to treat dermatitis” (priority 1993, dated 1994).
